ChEMBL document CHEMBL2424571, “Synthesis, molecular docking studies, and in vitro screening of barbiturates/thiobarbiturates as antibacterial and cholinesterase inhibitors” (Med Chem Res, 2013)
≈ marks a conversion by molar mass, not a printed value. Calls of active or inactive are those of the source. The rule behind the calls is not given here.

Experiments:
Acetylcholinesterase [1] = target: T1, Acetylcholinesterase (Homo sapiens, UniProt P22303); assay: Inhibition of AChE (unknown origin) using acetyl thiocholine iodide as substrate at 0.25 mM after 30 mins by Ellman's method
T1 sequence (P22303 whole entry): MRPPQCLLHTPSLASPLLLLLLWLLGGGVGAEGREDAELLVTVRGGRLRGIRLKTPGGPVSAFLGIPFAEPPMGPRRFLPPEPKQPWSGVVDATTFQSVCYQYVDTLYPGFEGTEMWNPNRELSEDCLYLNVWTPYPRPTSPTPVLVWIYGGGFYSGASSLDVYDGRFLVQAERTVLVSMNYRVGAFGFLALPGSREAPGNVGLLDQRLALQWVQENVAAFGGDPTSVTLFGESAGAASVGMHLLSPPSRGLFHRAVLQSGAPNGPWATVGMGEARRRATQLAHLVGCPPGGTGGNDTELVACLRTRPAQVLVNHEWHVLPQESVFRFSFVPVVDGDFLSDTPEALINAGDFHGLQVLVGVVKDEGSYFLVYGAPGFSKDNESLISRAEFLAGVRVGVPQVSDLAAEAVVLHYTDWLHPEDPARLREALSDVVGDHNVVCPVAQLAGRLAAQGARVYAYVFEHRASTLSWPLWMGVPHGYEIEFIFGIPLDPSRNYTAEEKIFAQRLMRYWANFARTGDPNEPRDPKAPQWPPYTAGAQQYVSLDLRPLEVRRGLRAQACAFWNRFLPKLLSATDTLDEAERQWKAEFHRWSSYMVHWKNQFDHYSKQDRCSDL

Cholinesterase [2] = target: T2, Cholinesterase (Homo sapiens, UniProt P06276); assay: Inhibition of BChE (unknown origin) using butyryl thiocholine iodide as substrate after 30 mins by Ellman's method
T2 sequence (P06276 whole entry): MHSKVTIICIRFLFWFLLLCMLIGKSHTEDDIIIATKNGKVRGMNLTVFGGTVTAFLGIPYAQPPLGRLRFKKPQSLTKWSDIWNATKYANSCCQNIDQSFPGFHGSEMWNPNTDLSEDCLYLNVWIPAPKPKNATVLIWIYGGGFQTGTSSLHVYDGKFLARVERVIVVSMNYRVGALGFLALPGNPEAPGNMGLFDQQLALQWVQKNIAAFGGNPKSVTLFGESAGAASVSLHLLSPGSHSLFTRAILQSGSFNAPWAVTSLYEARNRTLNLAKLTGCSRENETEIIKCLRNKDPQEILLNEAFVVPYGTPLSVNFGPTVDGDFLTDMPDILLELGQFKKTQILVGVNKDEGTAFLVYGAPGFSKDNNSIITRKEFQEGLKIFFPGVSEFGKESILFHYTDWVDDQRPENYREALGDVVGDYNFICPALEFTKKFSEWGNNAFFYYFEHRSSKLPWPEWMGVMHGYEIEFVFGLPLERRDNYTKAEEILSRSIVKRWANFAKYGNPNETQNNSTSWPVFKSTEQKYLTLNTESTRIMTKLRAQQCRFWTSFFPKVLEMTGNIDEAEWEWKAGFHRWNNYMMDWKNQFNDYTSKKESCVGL

Cholinesterase [3] = target: T2, Cholinesterase; assay: Inhibition of BChE (unknown origin) using butyryl thiocholine iodide as substrate at 0.25 mM after 30 mins by Ellman's method
Acetylcholinesterase [4] = target: T1, Acetylcholinesterase; assay: Inhibition of AChE (unknown origin) using acetyl thiocholine iodide as substrate after 30 mins by Ellman's method
Vibrio cholerae = assay: Antibacterial activity against Vibrio cholerae at 1 mg/ml after 24 hrs by agar-well diffusion method; type: functional, organism-based
Escherichia coli [5] = assay: Antibacterial activity against Escherichia coli DH5[alpha] at 1 mg/ml after 24 hrs by agar-well diffusion method; type: functional; settings: read-out: IZ
Staphylococcus aureus [6] = assay: Antibacterial activity against Staphylococcus aureus at 1 mg/ml after 24 hrs by agar-well diffusion method; type: functional; settings: read-out: IZ
Escherichia coli [7] = assay: Antibacterial activity against Escherichia coli DH5[alpha] after 18 to 24 hrs by Micro-titer assay; type: functional
Pseudomonas aeruginosa [8] = assay: Antibacterial activity against Pseudomonas aeruginosa at 1 mg/ml after 24 hrs by agar-well diffusion method; type: functional; settings: for zone of inhibition at 1000 µg/mL: read-out: IZ
Staphylococcus aureus [9] = assay: Antibacterial activity against Staphylococcus aureus after 18 to 24 hrs by Micro-titer assay; type: functional
Pseudomonas aeruginosa [10] = assay: Antibacterial activity against Pseudomonas aeruginosa after 18 to 24 hrs by Micro-titer assay; type: functional
Salmonella typhi = assay: Antibacterial activity against Salmonella typhi at 1 mg/ml after 24 hrs by agar-well diffusion method; type: functional, organism-based; settings: Salmonella enterica subsp. enterica serovar Typhi
Escherichia coli [11] = assay: Antibacterial activity against Escherichia coli DG2 at 1 mg/ml after 24 hrs by agar-well diffusion method; type: functional, organism-based
Escherichia coli [12] = assay: Antibacterial activity against Escherichia coli 5604 at 1 mg/ml after 24 hrs by agar-well diffusion method; type: functional, organism-based
Cholinesterase [13] = target: T2, Cholinesterase; assay: Inhibition of BChE (unknown origin) using butyryl thiocholine iodide as substrate at 0.125 mM after 30 mins by Ellman's method
Acetylcholinesterase [14] = target: T1, Acetylcholinesterase; assay: Inhibition of AChE (unknown origin) using acetyl thiocholine iodide as substrate at 0.125 mM after 30 mins by Ellman's method
Cholinesterase [15] = target: T2, Cholinesterase; assay: Inhibition of BChE (unknown origin) using butyryl thiocholine iodide as substrate at 0.5 mM after 30 mins by Ellman's method
Acetylcholinesterase [16] = target: T1, Acetylcholinesterase; assay: Inhibition of AChE (unknown origin) using acetyl thiocholine iodide as substrate at 0.5 mM after 30 mins by Ellman's method

SMILES | inhibition (Acetylcholinesterase [1]) [%] | IC50 (Cholinesterase [2]) [µmol] | inhibition (Cholinesterase [3]) [%] | IC50 (Acetylcholinesterase [4]) [µmol] | also measured
COc1ccc(NC(=S)NNC=C2C(=O)NC(=S)NC2=O)cc1 | 59.1 | 56.81 | 85.4 | 206.31 | –
O=C1NC(=S)NC(=O)C1=CNNC(=S)Nc1ccccc1 | 73.2 | 57.11 | 83.2 | 115.11 | –
CC(=O)NC=C1C(=O)NC(=O)NC1=O | 77.7 | 116.61 | 88.3 | 90.91 | inhibition zone (IZ) (Vibrio cholerae): inactive; zone of inhibition at 1000 µg/mL (Escherichia coli [5]): 15 mm; zone of inhibition at 1000 µg/mL (Staphylococcus aureus [6]): 18 mm; MIC (Escherichia coli [7]): 100 µg/mL (≈ 507 µM); zone of inhibition at 1000 µg/mL (Pseudomonas aeruginosa [8]): 18 mm; MIC (Staphylococcus aureus [9]): 100 µg/mL (≈ 507 µM); MIC (Pseudomonas aeruginosa [10]): 200 µg/mL (≈ 1010 µM); inhibition zone (IZ) (Salmonella typhi): inactive; inhibition zone (IZ) (Escherichia coli [11]): inactive; inhibition zone (IZ) (Escherichia coli [12]): inactive
O=C1NC(=O)C(=CNNC(=O)Nc2ccccc2)C(=O)N1 | – | 38.51 | – | – | inhibition (Cholinesterase [13]): 79.2%; inhibition (Acetylcholinesterase [14]): 39.6%
O=C1NC(=S)NC(=O)C1=CNNC(=S)Nc1ccc(Br)cc1 | 80.4 | 68.41 | 84.5 | 79.21 | –
O=C1NC(=S)NC(=O)C1=CNNC(=S)Nc1ccc(F)cc1 | 86.9 | 57.81 | 88.8 | 78.41 | –
NC(=S)NNC=C1C(=O)NC(=O)NC1=O | 65.8 | 56.51 | 87.5 | 119.11 | –
O=C1NC(=S)NC(=O)C1=CNNC(=S)Nc1ccc(C(F)(F)F)cc1 | 75.6 | 8.11 | 78.2 | 99.41 | –
O=C(NNC=C1C(=O)NC(=S)NC1=O)Nc1ccccc1 | – | 3.31 | – | 74.21 | inhibition (Cholinesterase [13]): 85.1%; inhibition (Acetylcholinesterase [14]): 66.8%
N#Cc1ccc(NC(=S)NNC=C2C(=O)NC(=O)NC2=O)cc1 | 11.4 | 231.61 | 66.8 | – | –
Cc1cccc(Cl)c1NC(=S)NNC=C1C(=O)NC(=O)NC1=O | – | 8.81 | – | – | inhibition (Cholinesterase [15]): 75.8%; inhibition (Acetylcholinesterase [16]): 49.4%
O=C(N[C@H](CO)[C@H](O)c1ccc([N+](=O)[O-])cc1)C(Cl)Cl [CHLORAMPHENICOL] | – | – | – | – | inhibition zone (IZ) (Vibrio cholerae): inactive; zone of inhibition at 1000 µg/mL (Escherichia coli [5]): 25 mm; zone of inhibition at 1000 µg/mL (Staphylococcus aureus [6]): 25 mm; MIC (Escherichia coli [7]): 1.56 µg/mL (≈ 4.83 µM); zone of inhibition at 1000 µg/mL (Pseudomonas aeruginosa [8]): 25 mm; MIC (Staphylococcus aureus [9]): < 0.78 µg/mL; MIC (Pseudomonas aeruginosa [10]): 1.56 µg/mL (≈ 4.83 µM); inhibition zone (IZ) (Salmonella typhi): inactive; inhibition zone (IZ) (Escherichia coli [11]): inactive; inhibition zone (IZ) (Escherichia coli [12]): inactive
O=C1NC(=O)C(=CNNC(=S)Nc2cccc(C(F)(F)F)c2)C(=O)N1 | – | 136.91 | – | 40.78 | inhibition (Cholinesterase [15]): 75.9%; inhibition (Acetylcholinesterase [16]): 83.3%
CNC(=O)Oc1ccc2c(c1)[C@]1(C)CCN(C)[C@@H]1N2C | 92.5 | – | 92.5 | – | –
O=C1NC(=S)NC(=O)C1=CNNC(=S)Nc1ccc(Cl)cc1 | 62 | 75.41 | 81.6 | 121.11 | inhibition zone (IZ) (Vibrio cholerae): inactive; zone of inhibition at 1000 µg/mL (Escherichia coli [5]): 14 mm; zone of inhibition at 1000 µg/mL (Staphylococcus aureus [6]): 15 mm; MIC (Escherichia coli [7]): 200 µg/mL (≈ 562 µM); inhibition zone (IZ) (Pseudomonas aeruginosa [8]): inactive; MIC (Staphylococcus aureus [9]): 100 µg/mL (≈ 281 µM); MIC (Pseudomonas aeruginosa [10]): 400 µg/mL (≈ 1120 µM); inhibition zone (IZ) (Salmonella typhi): inactive; inhibition zone (IZ) (Escherichia coli [11]): inactive; inhibition zone (IZ) (Escherichia coli [12]): inactive
